According to patent publication US20110206638A1, “COMPOSITIONS AND METHODS FOR REDUCING THE MUTATION RATE OF VIRUSES” (priority 2010, published 2011):

Experiments:
[1] = system: subgenomic HCV replicon of genotype 1b (Con1S1179I), NS5A region; assay: NS5A sequencing of HCV RNA, nucleotide and amino acid substitution rates in Con1 replicon cells (Example 2); assay type: cell-based, Hepatitis C virus; conditions: for dn/ds / Ts/Tv / Percentage of sites showing positive selection / location of mutations in NS5A / Fold increase (Amino acid change per site) / Fold increase (Nt. change per site): 48 hrs; for dn/ds: SNAP, control 0.31; for Ts/Tv: control 3.3; for Percentage of sites showing positive selection: control 4.25%; for Amino acid change per site / Nt. change per site: Con1 replicon cells, once daily for 48 hrs, T7 baseline subtracted; for Nt. change per site: ethanol 0.5% v/v, BSO 20 μM, H2O2 100 μM, acetaldehyde 10 μM; for location of mutations in NS5A: SNAP plot against codons; for percentage of nucleotide substitutions A→C / percentage of nucleotide substitutions A→G / percentage of nucleotide substitutions A→U / percentage of nucleotide substitutions C→A / percentage of nucleotide substitutions C→G / percentage of nucleotide substitutions C→U / percentage of nucleotide substitutions G→A / percentage of nucleotide substitutions G→C / percentage of nucleotide substitutions G→U / percentage of nucleotide substitutions U→A / percentage of nucleotide substitutions U→C / percentage of nucleotide substitutions U→G: of all nt. substitutions in the group; for Fold increase (Amino acid change per site) / Fold increase (Nt. change per site): over control
Method: Huh7 cell clones (SgPC2 cells) supporting continuous replication of a subgenomic HCV replicon of genotype 1b (Con1S1179I sequence) were used (Choi J. et al. (2004) Hepatology 39:81-89; Blight K J et al. (2000) Science 290:1972). Subgenomic replicons support the HCV RNA genome replication by the viral replicase but no virus is formed. The in vitro transcription, transfection of the viral RNA, and Huh7 human hepatoma cell culture were performed as described (Choi J. et al. (2004) Hepatology 39:81-89; Blight K J et al. (2000) Science 290:1972). All biochemicals including ethanol (molecular biology grade), acetaldehyde, BSO, H2O2, dipyridal, and GSH ethyl ester were obtained from SigmaAldrich except PIH, which was synthesized according to published methods (Kicic A et al., (2001) Cancer 92: 3093-3110; Ponka P. et al., (1979) FEBS Lett 97: 317-321).
Total RNAs were collected using Trizol (Invitrogen). Then, the NS5A region (nt. 4612 to 6013 of Con1 replicon) was reverse transcribed/amplified with AccuScript High Fidelity RT-PCR System (Agilent). The reverse primer used for reverse transcription and PCR amplification was 5′-[…]-3′ (SEQ ID NO: 1), and the forward primer was 5′-[…]-3′ (SEQ ID NO: 2). The XbaI and HindIII restriction enzyme sites are underlined. The cDNA products were cloned into pUC19 via HindIII and XbaI sites and sequenced at the Joint Genome Institute (Livermore, Calif.) and University of California Berkeley Sequencing (Berkeley, Calif.). Sequences were aligned against Con1(S1179I) sequence, using BioEdit/MEGA 4.0 Molecular Evolutionary Genetics Analysis software. Cumulative synonymous and nonsynonymous mutations were computed using Synonymous Nonsynonomous Analysis Program (SNAP; www.hcv.lanl.gov). The […] ratio was calculated using SNAP. Amino acid substitution trends were analyzed by position with MutationCounter, a mutation counting program, developed for this project. The sequences were compared with 1,212 genotype 1b NS5A sequences pooled from the Lawrence Livermore HCV sequence database (www.hcv.lanl.gov) which included sequences from the European, Asian, and Russian databases. Sequences harboring gaps, undetermined nucleotides, or incomplete NS5A sequences were removed prior to the analysis.
To test whether ethanol can affect the HCV RNA sequence, Con1 replicon cells that support genotype 1b subgenomic HCV RNA replication were incubated with ethanol (0.5% v/v), BSO (20 μM), H2O2 (100 μM), or acetaldehyde (10 μM) once daily for 48 hrs with a change of the cell culture medium at the time of each treatment. Acetaldehyde and H2O2 are generated during hepatic metabolism of ethanol. BSO, by inhibiting GSH biosynthesis, mimics GSH depletion seen in hepatitis C patients. GSH participates in detoxification reactions that remove reactive species such as H2O2 and acetaldehyde. Thus, by decreasing GSH, BSO also amplifies the effects of endogenous ROS and RNS, allowing one to test the effects of endogenous ROS/RNS. Then, the RNA was collected, and the NS5A region corresponding to nt. 4612 to 6013 of Con1 replicon was reverse transcribed using AccuScript reverse transcriptase and amplified with PfuUltra (Agilent). PfuUltra is a high fidelity DNA polymerase with an error rate of 4.3×10^−9; AccuScript reverse transcriptase has an error rate of 1.61×10^−7. Then, the cDNA products were cloned into pUC19 and sequenced by the Sanger method.

[2] = system: Huh7 cells; assay type: cell-based, human
Method: Total RNA was isolated using Trizol (Invitrogen) and analyzed for 8-OH-guanosine (8-OH-G) by northwestern, as described (Shan X et al. (2003) J. Neurosci. 23:4913-4921). Briefly, RNA was size-fractionated by agarose gel electrophoresis, transferred to a nylon membrane, blocked with 1% BSA, incubated sequentially with monoclonal anti-8-OH-G/dG antibodies (QED Bioscience, Inc.) and then with goat anti-mouse HRP-conjugated secondary antibody (Santa Cruz Biotechnology), and signals were detected, using an ECL kit (Amersham). In addition, RNA was digested with nuclease P1 (Sigma, US Biological) and alkaline phosphatase (Promega) and analyzed for 8-OH-G content using RNA Damage Kit (Cell Biolabs, Inc.), following manufacturer's protocols.
GO continuously generates H2O2 extracellularly, in the presence of glucose and can be used to mimic inflammation and continued oxidative stress seen during chronic hepatitis C. […] An in vitro-oxidized control Huh7 RNA (incubated with H2O2+cytochrome C) was used as a positive control (FIG. 3A). […] NiCl2 was used as a positive control genotoxin in FIGS. 3B and 3C.

CCCCS(=N)(=O)CCC(N)C(=O)O [BSO, L-buthionine-S,R-sulfoximine]
dn/ds [1]: 0.72 | Ts/Tv [1]: 3.3 | Percentage of sites showing positive selection [1]: 12.3% | Amino acid change per site [1]: 3.24×10^−3 amino acid change per site | Nt. change per site [1]: 1.20×10^−3 nt. change per site | location of mutations in NS5A [1]: clustered in the C-terminal half of NS5A | percentage of nucleotide substitutions A→C [1]: 1.28 percentage | percentage of nucleotide substitutions A→G [1]: 24.36 percentage | percentage of nucleotide substitutions A→U [1]: 2.56 percentage | percentage of nucleotide substitutions C→A [1]: 3.85 percentage | percentage of nucleotide substitutions C→G [1]: 5.13 percentage | percentage of nucleotide substitutions C→U [1]: 8.97 percentage | percentage of nucleotide substitutions G→A [1]: 16.67 percentage | percentage of nucleotide substitutions G→C [1]: 3.85 percentage | percentage of nucleotide substitutions G→U [1]: 3.85 percentage | percentage of nucleotide substitutions U→A [1]: 0 percentage | percentage of nucleotide substitutions U→C [1]: 29.49 percentage | percentage of nucleotide substitutions U→G [1]: 0 percentage | Fold increase (Amino acid change per site) [1]: 11.6 fold

CCO [Ethanol, ethanol]
dn/ds [1]: 1.05 | Ts/Tv [1]: 6.8 | Percentage of sites showing positive selection [1]: 12.3% | Amino acid change per site [1]: 4.97 × 10^−3 amino acid change per site | Nt. change per site [1]: 1.71 × 10^−3 nt. change per site | Nt. change per site ([1]; listed as ethanol): 1.71×10^−3 nt. change per site | Amino acid change per site ([1]; listed as ethanol): 4.97×10^−3 amino acid change per site | location of mutations in NS5A [1]: clustered in the C-terminal half of NS5A | percentage of nucleotide substitutions A→C [1]: 1.30 percentage | percentage of nucleotide substitutions A→G [1]: 25.97 percentage | percentage of nucleotide substitutions A→U [1]: 2.60 percentage | percentage of nucleotide substitutions C→A [1]: 0 percentage | percentage of nucleotide substitutions C→G [1]: 0 percentage | percentage of nucleotide substitutions C→U [1]: 18.18 percentage | percentage of nucleotide substitutions G→A [1]: 12.99 percentage | percentage of nucleotide substitutions G→C [1]: 6.49 percentage | percentage of nucleotide substitutions G→U [1]: 2.60 percentage | percentage of nucleotide substitutions U→A [1]: 0 percentage | percentage of nucleotide substitutions U→C [1]: 29.87 percentage | percentage of nucleotide substitutions U→G [1]: 0 percentage | Fold increase (Amino acid change per site) [1]: 17.8 fold | Fold increase (Nt. change per site) [1]: 5.9 fold | Fold increase (Amino acid change per site) ([1]; listed as ethanol): ~18 fold | Fold increase (Nt. change per site) ([1]; listed as ethanol): about 6 fold | 8-OHG in Huh7 cells [2]: elevated
